# Test results taken from ChEMBL document CHEMBL4616592, “Design, synthesis and bio-evaluation of C-1 alkylated tetrahydro-β-carboline derivatives as novel antifungal lead compounds” (Bioorg Med Chem Lett, 2020).
# The source made the active and inactive calls. No cut-off for these calls is given here.
# Legend:
# [1] = test system: Nakaseomyces glabratus; test: Fungicidal activity against Candida glabrata assessed as time taken to kill fungal colony at MIC by time kill kinetic assay; format: functional
# [2] = test system: Pichia kudriavzevii; test: Antifungal activity against Candida krusei assessed as fungal growth inhibition; format: functional
# [3] = test system: Candida parapsilosis; test: Antifungal activity against Candida parapsilosis assessed as fungal growth inhibition; format: functional; conditions: Lodderomyces parapsilosis
# [4] = test system: Candida tropicalis; test: Antifungal activity against Candida tropicalis assessed as fungal growth inhibition; format: functional
# [5] = test system: Nakaseomyces glabratus; test: Antifungal activity against Candida glabrata assessed as fungal growth inhibition; format: functional
# [6] = test system: Kluyveromyces marxianus; test: Antifungal activity against Candida kefyr assessed as fungal growth inhibition; format: functional
# [7] = test system: Candida albicans; test: Antifungal activity against Candida albicans assessed as fungal growth inhibition; format: functional
# [8] = test system: Cryptococcus neoformans; test: Antifungal activity against Cryptococcus neoformans assessed as fungal growth inhibition; format: functional
# [9] = test system: Nakaseomyces glabratus; test: Synergistic antifungal activity against Candida glabrata assessed as fold potentiation of ketoconazole MIC for antifungal activity by checkerboard assay relative to control; format: functional
# [10] = test system: Nakaseomyces glabratus; test: Synergistic antifungal activity against Candida glabrata assessed as fractional inhibitory concentration index in presence of amphotericin B by checkerboard assay; format: functional
# [11] = test system: Nakaseomyces glabratus; test: Induction of morphological changes in Candida glabrata assessed as disintegration of cell surface at 9.7 uM by FE-SEM analysis; format: functional, organism-based
# [12] = test system: Nakaseomyces glabratus; test: Synergistic antifungal activity against Candida glabrata assessed as fractional inhibitory concentration index in presence of fluconazole by checkerboard assay; format: functional
# [13] = test system: Nakaseomyces glabratus; test: Induction of apoptosis in Candida glabrata assessed as early apoptotic cells at 9.70 uM incubated for 4 hrs by annexin V-FITC/propidium iodide staining based analysis (reference value: 3%); format: functional
# [14] = test system: Nakaseomyces glabratus; test: Induction of apoptosis in Candida glabrata assessed as necrotic cells at 9.70 uM incubated for 4 hrs by annexin V-FITC/propidium iodide staining based analysis (reference value: 1.4%); format: functional
# [15] = test system: Nakaseomyces glabratus; test: Induction of apoptosis in Candida glabrata assessed as live cells at 9.70 uM incubated for 4 hrs by annexin V-FITC/propidium iodide staining based analysis (reference value: 95.5%); format: functional
# [16] = test system: Nakaseomyces glabratus; test: Induction of morphological changes in Candida glabrata assessed as increase in asymmetry at 9.7 uM by FE-SEM analysis; format: functional, organism-based
# [17] = test system: Nakaseomyces glabratus; test: Synergistic antifungal activity against Candida glabrata assessed as fold potentiation of fluconazole MIC for antifungal activity by checkerboard assay relative to control; format: functional
# [18] = Cytotoxicity against human HeLa cells assessed as reduction in cell viability at 10 uM by MTT assay relative to control; format: cell-based; conditions: read-out: INH
# [19] = test system: Nakaseomyces glabratus; test: Synergistic antifungal activity against Candida glabrata assessed as fold potentiation of AmphotericinB MIC for antifungal activity by checkerboard assay relative to control; format: functional
# [20] = Cytotoxicity against human HEK293 cells assessed as reduction in cell viability at 10 uM by MTT assay relative to control; format: cell-based; conditions: read-out: INH
# [21] = Cytotoxicity against human HEK293 cells assessed as cell viability at 20 to 50 uM by MTT assay relative to control; format: cell-based; conditions: read-out: Activity
# [22] = test system: Nakaseomyces glabratus; test: Synergistic antifungal activity against Candida glabrata assessed as fractional inhibitory concentration index in presence of ketoconazole by checkerboard assay; format: functional
# [23] = test system: Nakaseomyces glabratus; test: Induction of apoptosis in Candida glabrata assessed as late apoptotic cells at 9.70 uM incubated for 4 hrs by annexin V-FITC/propidium iodide staining based analysis (reference value: 0.1%); format: functional
# [24] = Cytotoxicity against human HeLa cells assessed as cell viability at 20 to 50 uM by MTT assay relative to control; format: cell-based; conditions: read-out: Activity
# [25] = Cytotoxicity against human HEK293 cells assessed as cell viability at 2.5 uM by MTT assay relative to control; format: cell-based; conditions: read-out: Activity
# [26] = test system: Nakaseomyces glabratus; test: Induction of morphological changes in Candida glabrata assessed as roughness of cell surface at 9.7 uM by FE-SEM analysis; format: functional, organism-based
smiles,measurement,setting,value
C[C@@H]1[C@H](O)[C@@H](C)/C=C/C=C/C=C/C=C/C=C/C=C/C=C/[C@H](O[C@@H]2O[C@H](C)[C@@H](O)[C@H](N)[C@@H]2O)C[C@@H]2O[C@](O)(C[C@@H](O)C[C@@H](O)[C@H](O)CC[C@@H](O)C[C@@H](O)CC(=O)O[C@H]1C)C[C@H](O)[C@H]2C(=O)O [AMPHOTERICIN B],Time,[1],4 h
same,MIC,[2],0.78 µM
same,MIC,[3],1.56 µM
same,MIC,[4],0.78 µM
same,MIC,[5],0.39 to 0.78 µM
same,MIC,[6],12.5 µM
same,MIC,[7],1.56 µM
same,MIC,[8],0.78 µM
COC(=O)[C@@H]1Cc2c([nH]c3ccccc23)[C@H](c2ccc3c(c2)OCO3)N1,MIC,[2],> 250 µM
same,MIC,[3],> 250 µM
same,MIC,[4],> 250 µM
same,MIC,[5],> 250 µM
same,MIC,[6],> 250 µM
same,MIC,[7],> 250 µM
same,MIC,[8],> 250 µM
COC(=O)[C@@H]1Cc2c([nH]c3ccccc23)[C@H](c2ccccc2)N1,MIC,[2],> 250 µM
same,MIC,[3],> 250 µM
same,MIC,[4],> 250 µM
same,MIC,[5],> 250 µM
same,MIC,[6],> 250 µM
same,MIC,[7],> 250 µM
same,MIC,[8],> 250 µM
COC(=O)[C@@H]1Cc2c([nH]c3ccccc23)[C@H](c2cccs2)N1,MIC,[2],> 250 µM
same,MIC,[3],> 250 µM
same,MIC,[4],> 250 µM
same,MIC,[5],> 250 µM
same,MIC,[6],> 250 µM
same,MIC,[7],> 250 µM
same,MIC,[8],> 250 µM
CCCCCCCC[C@@H]1N[C@H](C(=O)OC)Cc2c1[nH]c1ccccc21,MIC,[2],> 250 µM
same,MIC,[3],> 250 µM
same,MIC,[4],> 250 µM
same,MIC,[5],62.5 µM
same,MIC,[6],62.5 µM
same,MIC,[7],> 250 µM
same,MIC,[8],39.1 µM
CCCC[C@@H]1N[C@H](C(=O)OC)Cc2c1[nH]c1ccccc21,MIC,[2],> 250 µM
same,MIC,[3],> 250 µM
same,MIC,[4],> 250 µM
same,MIC,[5],> 250 µM
same,MIC,[6],> 250 µM
same,MIC,[7],> 250 µM
same,MIC,[8],> 250 µM
CCCCCC[C@H]1N[C@H](C(=O)OC)Cc2c1[nH]c1ccccc21,MIC,[2],> 250 µM
same,MIC,[3],> 250 µM
same,MIC,[4],> 250 µM
same,MIC,[5],> 250 µM
same,MIC,[6],> 250 µM
same,MIC,[7],> 250 µM
same,MIC,[8],> 250 µM
CCCCCC[C@@H]1N[C@H](C(=O)OC)Cc2c1[nH]c1ccccc21,MIC,[2],> 250 µM
same,MIC,[3],> 250 µM
same,MIC,[4],> 250 µM
same,MIC,[5],> 250 µM
same,MIC,[6],> 250 µM
same,MIC,[7],> 250 µM
same,MIC,[8],156 µM
CCCCCCCCCCC[C@H]1N[C@H](C(=O)OC)Cc2c1[nH]c1ccccc21,MIC,[2],> 250 µM
same,MIC,[3],> 250 µM
same,MIC,[4],> 250 µM
same,MIC,[5],> 250 µM
same,MIC,[6],> 250 µM
same,MIC,[7],> 250 µM
same,MIC,[8],> 250 µM
COC(=O)[C@@H]1Cc2c([nH]c3ccccc23)[C@H](c2cccnc2)N1,MIC,[2],> 250 µM
same,MIC,[3],> 250 µM
same,MIC,[4],> 250 µM
same,MIC,[5],> 250 µM
same,MIC,[6],> 250 µM
same,MIC,[7],> 250 µM
same,MIC,[8],> 250 µM
CCCCCCCC[C@H]1N[C@H](C(=O)OC)Cc2c1[nH]c1ccccc21,fold change (FC),[9],9
same,fractional inhibitory concentration index (FICI),[10],0.24
same,Activity,[11],Active
same,fractional inhibitory concentration index (FICI),[12],0.48
same,Time,[1],12 h
same,Activity,[13],3.5%
same,Activity,[14],3.2%
same,MIC,[2],19.6 µM
same,Activity,[15],5.6%
same,MIC,[3],39.1 µM
same,Activity,[16],Active
same,fold change (FC),[17],4
same,cytotoxicity at 10 µM,[18],14%
same,fold change (FC),[19],11
same,cytotoxicity at 10 µM,[20],10%
same,MIC,[4],19.6 µM
same,viability at up to 50 µM,[21],70 to 80%
same,MIC,[5],9.7 µM
same,MIC,[6],9.7 µM
same,fractional inhibitory concentration index (FICI),[22],0.35 - 0.38
same,Activity,[23],87.7%
same,viability at up to 50 µM,[24],70 to 80%
same,viability at 2.5 µM,[25],95%
same,Activity,[26],Active
same,MIC,[7],39.1 µM
same,MIC,[8],19.6 µM
COC(=O)[C@@H]1Cc2c([nH]c3ccccc23)[C@@H](c2cccnc2)N1,MIC,[2],> 250 µM
same,MIC,[3],> 250 µM
same,MIC,[4],> 250 µM
same,MIC,[5],> 250 µM
same,MIC,[6],> 250 µM
same,MIC,[7],> 250 µM
same,MIC,[8],> 250 µM
CCCC[C@H]1N[C@H](C(=O)OC)Cc2c1[nH]c1ccccc21,MIC,[2],156 µM
same,MIC,[3],156 µM
same,MIC,[4],> 250 µM
same,MIC,[5],> 250 µM
same,MIC,[6],156 µM
same,MIC,[7],> 250 µM
same,MIC,[8],> 250 µM
COC(=O)[C@@H]1Cc2c([nH]c3ccccc23)[C@@H](c2ccc3c(c2)OCO3)N1,MIC,[2],> 250 µM
same,MIC,[3],> 250 µM
same,MIC,[4],> 250 µM
same,MIC,[5],> 250 µM
same,MIC,[6],> 250 µM
same,MIC,[7],> 250 µM
same,MIC,[8],> 250 µM
CCCCCCCCCCC[C@@H]1N[C@H](C(=O)OC)Cc2c1[nH]c1ccccc21,MIC,[2],> 250 µM
same,MIC,[3],> 250 µM
same,MIC,[4],> 250 µM
same,MIC,[5],> 250 µM
same,MIC,[6],> 250 µM
same,MIC,[7],> 250 µM
same,MIC,[8],> 250 µM
CC(=O)N1CCN(c2ccc(OCC3COC(Cn4ccnc4)(c4ccc(Cl)cc4Cl)O3)cc2)CC1 (stereo unspecified) [KETOCONAZOLE],MIC,[5],15.1 µM
OC(Cn1cncn1)(Cn1cncn1)c1ccc(F)cc1F [FLUCONAZOLE],MIC,[5],13.1 µM
COC(=O)[C@@H]1Cc2c([nH]c3ccccc23)[C@@H](c2cccs2)N1,MIC,[2],> 250 µM
same,MIC,[3],> 250 µM
same,MIC,[4],> 250 µM
same,MIC,[5],> 250 µM
same,MIC,[6],> 250 µM
same,MIC,[7],> 250 µM
same,MIC,[8],> 250 µM
COC(=O)[C@@H]1Cc2c([nH]c3ccccc23)[C@@H](c2ccccc2)N1,MIC,[2],> 250 µM
same,MIC,[3],> 250 µM
same,MIC,[4],> 250 µM
same,MIC,[5],> 250 µM
same,MIC,[6],125 µM
same,MIC,[7],> 250 µM
same,MIC,[8],> 250 µM
